From the supplement of paper PMC10307832

Legend:
Experiment in all cases: relative viability (nuclei count vs DMSO), 5 days (fraction); higher = more cells survive
[1] = test system: HCC-78
In short: (§1)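 Values are medians from duplicate plates. Each reflects relative viability, defined as the nuclei count of treated wells over that of vehicle wells. Lung cancer cell lines in 1536-well plates were pin-tool dosed one day after seeding with one drug alone or with a fixed anchor-drug dose plus five library-drug doses (not always all listed) in √10 steps, then fixed, stained and imaged at 4× after 5 days.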

[2] = test system: NCI-H1355
In short: as §1

[3] = test system: NCI-H2085
In short: as §1

[4] = test system: HCC-366
In short: as §1

[5] = test system: NCI-H1993
In short: as §1

[6] = test system: SW 1573
In short: as §1

[7] = test system: NCI-H3122
In short: as §1

[8] = test system: LK-2
In short: as §1

[9] = test system: NCI-H2009
In short: as §1

[10] = test system: NCI-H2347
In short: as §1

[11] = test system: NCI-H1734
In short: as §1

[12] = test system: LC-2-ad
In short: as §1

[13] = test system: NCI-H838
In short: as §1

[14] = test system: NCI-H2228
In short: as §1

[15] = test system: EMC-BAC-2
In short: as §1

[16] = test system: RERF-LC-KJ
In short: as §1

[17] = test system: CAL-12T
In short: as §1

[18] = test system: PC-14
In short: as §1

[19] = test system: NCI-H596
In short: as §1

[20] = test system: HOP-62
In short: as §1

[21] = test system: SK-MES-1
In short: as §1

[22] = test system: NCI-H2405
In short: as §1

SMILES: Cc1cnc(-c2cnc(NCCNc3ccc(C#N)cn3)nc2-c2ccc(Cl)cc2Cl)[nH]1 + CS(=O)(=O)CCNCc1ccc(-c2ccc3ncnc(Nc4ccc(OCc5cccc(F)c5)c(Cl)c4)c3c2)o1 [Lapatinib] (partner 2 µM)
- relative viability ([1]; first compound 0.08 µM): 0.449
- relative viability ([1]; first compound 0.253 µM): 0.528
- relative viability ([1]; first compound 0.8 µM): 1.12
- relative viability ([1]; first compound 2.53 µM): 0.546
- relative viability ([2]; first compound 0.08 µM): 1.06
- relative viability ([2]; first compound 0.253 µM): 0.8
- relative viability ([2]; first compound 0.8 µM): 0.95
- relative viability ([2]; first compound 2.53 µM): 0.909
- relative viability ([3]; first compound 0.08 µM): 0.837
- relative viability ([3]; first compound 0.253 µM): 0.8
- relative viability ([3]; first compound 0.8 µM): 0.786
- relative viability ([3]; first compound 2.53 µM): 0.848
- relative viability ([4]; first compound 0.08 µM): 0.989
- relative viability ([4]; first compound 0.253 µM): 0.951
- relative viability ([4]; first compound 0.8 µM): 1.08
- relative viability ([4]; first compound 2.53 µM): 0.935
- relative viability ([5]; first compound 0.08 µM): 0.957
- relative viability ([5]; first compound 0.253 µM): 0.756
- relative viability ([5]; first compound 0.8 µM): 0.823
- relative viability ([5]; first compound 2.53 µM): 0.937
- relative viability ([6]; first compound 0.08 µM): 1.02
- relative viability ([6]; first compound 0.253 µM): 1.04
- relative viability ([6]; first compound 0.8 µM): 1.1
- relative viability ([6]; first compound 2.53 µM): 1.02
- relative viability ([7]; first compound 0.08 µM): 0.977
- relative viability ([7]; first compound 0.253 µM): 0.933
- relative viability ([7]; first compound 0.8 µM): 0.997
- relative viability ([7]; first compound 2.53 µM): 1.03
- relative viability ([8]; first compound 0.08 µM): 1.1
- relative viability ([8]; first compound 0.253 µM): 0.885
- relative viability ([8]; first compound 0.8 µM): 0.928
- relative viability ([8]; first compound 2.53 µM): 0.897
- relative viability ([9]; first compound 0.08 µM): 0.991
- relative viability ([9]; first compound 0.253 µM): 0.522
- relative viability ([9]; first compound 0.8 µM): 0.866
- relative viability ([9]; first compound 2.53 µM): 0.905
- relative viability ([10]; first compound 0.08 µM): 0.862
- relative viability ([10]; first compound 0.253 µM): 0.649
- relative viability ([10]; first compound 0.8 µM): 1.06
- relative viability ([10]; first compound 2.53 µM): 1.02
- relative viability ([11]; first compound 0.08 µM): 1.13
- relative viability ([11]; first compound 0.253 µM): 0.901
- relative viability ([11]; first compound 0.8 µM): 0.882
- relative viability ([11]; first compound 2.53 µM): 1.05
- relative viability ([12]; first compound 0.08 µM): 1.06
- relative viability ([12]; first compound 0.8 µM): 0.761
- relative viability ([12]; first compound 2.53 µM): 0.898
- relative viability ([13]; first compound 0.08 µM): 1.12
- relative viability ([13]; first compound 0.253 µM): 0.858
- relative viability ([13]; first compound 0.8 µM): 1.11
- relative viability ([13]; first compound 2.53 µM): 1.27
- relative viability ([14]; first compound 0.08 µM): 1.23
- relative viability ([14]; first compound 0.253 µM): 0.904
- relative viability ([14]; first compound 0.8 µM): 0.911
- relative viability ([14]; first compound 2.53 µM): 0.781
- relative viability ([15]; first compound 0.08 µM): 1.02
- relative viability ([15]; first compound 0.253 µM): 0.808
- relative viability ([15]; first compound 0.8 µM): 0.887
- relative viability ([15]; first compound 2.53 µM): 0.859
- relative viability ([16]; first compound 0.08 µM): 0.902
- relative viability ([16]; first compound 0.253 µM): 0.777
- relative viability ([16]; first compound 0.8 µM): 0.771
- relative viability ([16]; first compound 2.53 µM): 0.932
- relative viability ([17]; first compound 0.253 µM): 0.64
- relative viability ([17]; first compound 2.53 µM): 0.627
- relative viability ([18]; first compound 0.08 µM): 0.352
- relative viability ([18]; first compound 0.253 µM): 0.29
- relative viability ([18]; first compound 0.8 µM): 0.277
- relative viability ([18]; first compound 2.53 µM): 0.38
- relative viability ([19]; first compound 0.08 µM): 1.04
- relative viability ([19]; first compound 0.253 µM): 0.994
- relative viability ([19]; first compound 0.8 µM): 1.09
- relative viability ([19]; first compound 2.53 µM): 1.02
- relative viability ([20]; first compound 0.08 µM): 1.01
- relative viability ([20]; first compound 0.253 µM): 0.902
- relative viability ([20]; first compound 0.8 µM): 1.05
- relative viability ([20]; first compound 2.53 µM): 1.04
- relative viability ([21]; first compound 0.08 µM): 0.514
- relative viability ([21]; first compound 0.253 µM): 0.474
- relative viability ([21]; first compound 0.8 µM): 0.439
- relative viability ([21]; first compound 2.53 µM): 0.559
- relative viability ([22]; first compound 0.08 µM): 1.11
- relative viability ([22]; first compound 0.253 µM): 1.01
- relative viability ([22]; first compound 0.8 µM): 0.741
- relative viability ([22]; first compound 2.53 µM): 0.523

SMILES: Cc1cnc(-c2cnc(NCCNc3ccc(C#N)cn3)nc2-c2ccc(Cl)cc2Cl)[nH]1 + C[C@]1(O)C[C@@H](c2nc(-c3ccc4ccc(-c5ccccc5)nc4c3)c3c(N)nccn32)C1 [Linsitinib] (partner 1 µM)
- relative viability ([1]; first compound 0.08 µM): 0.632
- relative viability ([1]; first compound 0.253 µM): 0.437
- relative viability ([1]; first compound 0.8 µM): 0.459
- relative viability ([1]; first compound 2.53 µM): 0.435
- relative viability ([2]; first compound 0.08 µM): 0.88
- relative viability ([2]; first compound 0.253 µM): 0.841
- relative viability ([2]; first compound 0.8 µM): 0.765
- relative viability ([2]; first compound 2.53 µM): 0.732
- relative viability ([3]; first compound 0.08 µM): 0.986
- relative viability ([3]; first compound 0.253 µM): 0.932
- relative viability ([3]; first compound 0.8 µM): 0.919
- relative viability ([3]; first compound 2.53 µM): 0.882
- relative viability ([4]; first compound 0.08 µM): 0.694
- relative viability ([4]; first compound 0.253 µM): 0.557
- relative viability ([4]; first compound 0.8 µM): 0.608
- relative viability ([4]; first compound 2.53 µM): 0.28
- relative viability ([5]; first compound 0.08 µM): 0.74
- relative viability ([5]; first compound 0.253 µM): 0.763
- relative viability ([5]; first compound 0.8 µM): 0.701
- relative viability ([5]; first compound 2.53 µM): 0.784
- relative viability ([6]; first compound 0.08 µM): 0.945
- relative viability ([6]; first compound 0.253 µM): 0.744
- relative viability ([6]; first compound 0.8 µM): 0.845
- relative viability ([6]; first compound 2.53 µM): 0.695
- relative viability ([7]; first compound 0.08 µM): 1.04
- relative viability ([7]; first compound 0.253 µM): 0.949
- relative viability ([7]; first compound 0.8 µM): 1.04
- relative viability ([7]; first compound 2.53 µM): 0.997
- relative viability ([8]; first compound 0.08 µM): 0.62
- relative viability ([8]; first compound 0.253 µM): 0.476
- relative viability ([8]; first compound 0.8 µM): 0.489
- relative viability ([8]; first compound 2.53 µM): 0.789
- relative viability ([9]; first compound 0.08 µM): 1.21
- relative viability ([9]; first compound 0.253 µM): 1.14
- relative viability ([9]; first compound 0.8 µM): 1.23
- relative viability ([9]; first compound 2.53 µM): 1.1
- relative viability ([10]; first compound 0.08 µM): 1.08
- relative viability ([10]; first compound 0.253 µM): 0.72
- relative viability ([10]; first compound 0.8 µM): 1
- relative viability ([10]; first compound 2.53 µM): 1.02
- relative viability ([11]; first compound 0.08 µM): 1.01
- relative viability ([11]; first compound 0.253 µM): 0.763
- relative viability ([11]; first compound 0.8 µM): 0.837
- relative viability ([11]; first compound 2.53 µM): 0.849
- relative viability ([12]; first compound 0.08 µM): 0.905
- relative viability ([12]; first compound 0.8 µM): 0.858
- relative viability ([12]; first compound 2.53 µM): 0.92
- relative viability ([13]; first compound 0.08 µM): 1.02
- relative viability ([13]; first compound 0.253 µM): 1.02
- relative viability ([13]; first compound 0.8 µM): 1.25
- relative viability ([13]; first compound 2.53 µM): 1.51
- relative viability ([14]; first compound 0.08 µM): 0.678
- relative viability ([14]; first compound 0.253 µM): 0.637
- relative viability ([14]; first compound 0.8 µM): 0.597
- relative viability ([14]; first compound 2.53 µM): 0.481
- relative viability ([15]; first compound 0.08 µM): 0.852
- relative viability ([15]; first compound 0.253 µM): 0.792
- relative viability ([15]; first compound 0.8 µM): 0.814
- relative viability ([15]; first compound 2.53 µM): 0.83
- relative viability ([16]; first compound 0.08 µM): 0.948
- relative viability ([16]; first compound 0.253 µM): 0.828
- relative viability ([16]; first compound 0.8 µM): 0.843
- relative viability ([16]; first compound 2.53 µM): 0.877
- relative viability ([17]; first compound 0.08 µM): 0.806
- relative viability ([17]; first compound 0.253 µM): 0.787
- relative viability ([17]; first compound 0.8 µM): 0.841
- relative viability ([17]; first compound 2.53 µM): 0.837
- relative viability ([18]; first compound 0.08 µM): 0.946
- relative viability ([18]; first compound 0.253 µM): 0.896
- relative viability ([18]; first compound 0.8 µM): 0.913
- relative viability ([18]; first compound 2.53 µM): 0.834
- relative viability ([19]; first compound 0.08 µM): 1.02
- relative viability ([19]; first compound 0.253 µM): 1.11
- relative viability ([19]; first compound 0.8 µM): 1.06
- relative viability ([19]; first compound 2.53 µM): 1.07
- relative viability ([20]; first compound 0.08 µM): 1.09
- relative viability ([20]; first compound 0.253 µM): 0.972
- relative viability ([20]; first compound 0.8 µM): 0.775
- relative viability ([20]; first compound 2.53 µM): 0.794
- relative viability ([21]; first compound 0.08 µM): 1.2
- relative viability ([21]; first compound 0.253 µM): 1.03
- relative viability ([21]; first compound 0.8 µM): 1.05
- relative viability ([21]; first compound 2.53 µM): 1.04
- relative viability ([22]; first compound 0.08 µM): 1.25
- relative viability ([22]; first compound 0.253 µM): 0.856
- relative viability ([22]; first compound 0.8 µM): 0.999
- relative viability ([22]; first compound 2.53 µM): 0.709
